Results taken from patent US20190307740A1, “COMPOSITIONS AND METHODS FOR TREATMENT RELATED TO FALL AND FALL FREQUENCY IN NEURODEGENERATIVE DISEASES” (Neurocea, LLC, priority 2016, published 2019).
Where “and” joins values, the source holds several entries; their conditions need not be identical. Equal entries are not always repeated.

What was measured:
[1] = system: subjects with idiopathic PD with LIDs
From the text: The original UPDRS scale was used. […] In the UPDRS Part II, Question 13 is on Falling unrelated to Freezing. […] In Part II, Question 14 is on Freezing when Walking. This is a 5-point item and has two variables freezing and falls. […] Questions 13 and 14 were compared separately (Table 11).
(§1) The efficacy variables for LIDs were the mean change from baseline to week 10 in the UDysRS total score; UDysRS sub-scores (Table 12). An analysis of covariance (ANCOVA) combined features of regression and analysis of variance (ANOVA). In addition to the descriptive summary of each variable from baseline to endpoint, Least Square (LS) means standard errors and 95% Confidence intervals (CI) of each group, and the difference of LS means between the 2 treatment groups and its 95% CI are presented. A similar analysis was applied to comparisons between UPDRS Part II, UPDRS Part III.

[2] = system: subjects with idiopathic PD with LIDs; remark: listed apart in the source
Description: At the time the study was performed (2009), there was no FDA accepted instrument for measuring treatment efficacy for LIDs. Therefore, several secondary objectives were utilized to assess efficacy including the Unified Dyskinesia Rating Scale (UDysRS).
Efficacy was measured with the Unified Dyskinesia Rating Scale (UDysRS), a semi-quantitative assessment, FDA-validated instrument to assess […] dyskinesia in PD. […] Dosing was begun at 1 mg every 6 hours to a final dose of 24 mg per day. Patients who tolerated a total daily dose of at least 16 mg per day continued in the study.
LIDs were assessed by the UDysRS, the main measure of LIDs (Table 12). […] The study was conducted in accordance with the Declaration of Helsinki and Good Clinical Practice Guidelines. All sites received approval from an institutional review board and written informed consent was obtained from each patient prior to participation.
as §1

Which results are given for `CN1CCCC1c1cccnc1.O=C(O)C(O)C(O)C(=O)O` (stereo not drawn) [NP002, Nicotine Bitartrate]?
Difference in LS Means, UPDRS Part III ([1]; NP002 versus placebo, p 0.337): −18.3 ± 1.8; Difference in LS Means, UPDRS Part II ([1]; NP002 versus placebo, p 0.631): 10.1 ± 0.96; UPDRS II Change ([1]; baseline to 10 weeks): 2.8 ± 5.2; UPDRS III Change ([1]; baseline to 10 weeks): 2.0 ± 7.5; UPDRS II at Baseline ([1]; before treatment, n=35): 13.1 ± 6.0; UPDRS III at Baseline ([1]; before treatment, n=35): 20.0 ± 8.8; UPDRS II at 10 Weeks ([1]; n=30): 10.1 ± 5.3; UPDRS III at 10 Weeks ([1]; n=30): 17.3 ± 10.6; UPDRS Part II and Part III after treatment vs placebo ([1]; p>0.34): no significant differences; UDysRS Evaluation of Dyskinesias on Ambulation, Difference LS Means ([2]; NP002 vs placebo, p 0.011): −3.7 +/− 1.9; UDysRS Evaluation of Dyskinesias on 7 Body Parts, Difference LS Means ([2]; NP002 vs placebo, p 0.062): −2.8 +/− 2.6; Total Score UDysRS, Difference LS Means ([2]; NP002 vs placebo, p 0.092): −6.7 +/− 4.1; UDysRS Evaluation of Dyskinesias on Dressing, Difference LS Means ([2]; NP002 vs placebo, p 0.139): −2.1 +/− 1.4; UDysRS Evaluation of Dyskinesias on Drinking, Difference LS Means ([2]; NP002 vs placebo, p 0.171): −2.4 +/− 1.7; UDysRS Evaluation of Dyskinesias on Communication, Difference LS Means ([2]; NP002 vs placebo, p 0.189): −1.9 +/− 1.4; UDysRS total score (primary outcome of dyskinesia) vs placebo ([2]; Week 10): statistical trend towards improvement; reduction (improvement) in UDysRS ambulation subtest ([2]; baseline to week 10, p=0.011 vs placebo): 46% and 46.3%; reduction in LIDs on the Total UDysRS ([2]; baseline to week 10, p=0.09 vs placebo): 29%; Total Score UDysRS, Baseline ([2]; before treatment, n=35): 51.7 +/− 16.9; UDysRS Evaluation of Dyskinesias on 7 Body Parts, Baseline ([2]; before treatment, n=35): 13.5 +/− 5.4; UDysRS Evaluation of Dyskinesias on Ambulation, Baseline ([2]; before treatment, n=35): 9.5 +/− 6.0; UDysRS Evaluation of Dyskinesias on Communication, Baseline ([2]; before treatment, n=35): 10.5 +/− 4.8; UDysRS Evaluation of Dyskinesias on Dressing, Baseline ([2]; before treatment, n=35): 11.3 +/− 6.2; UDysRS Evaluation of Dyskinesias on Drinking, Baseline ([2]; before treatment, n=35): 9.1 +/− 5.6; physician reported outcomes per UDysRS Part III vs placebo ([2]; dyskinesia impact on ambulation, p=0.011): significant improvement; Total Score UDysRS, Week 10 ([2]; n=27): 36.4 +/− 16.1; UDysRS Evaluation of Dyskinesias on Ambulation, Week 10 ([2]; n=27): 5.1 +/− 5.3; UDysRS Evaluation of Dyskinesias on Communication, Week 10 ([2]; n=27): 7.0 +/− 5.0; UDysRS Evaluation of Dyskinesias on Dressing, Week 10 ([2]; n=27): 6.9 +/−5.5; UDysRS Evaluation of Dyskinesias on Drinking, Week 10 ([2]; n=27): 5.3 +/− 5.0
